Measured values taken from patent US20100015169A1, “Tumor Antigens” (GREEN PEPTIDE CO., LTD., priority 2001, published 2010).

Test system: C1R-A2402 cells (HLA-A24+) pulsed with the same peptide
Test: IFN-γ production (ELISA) by peptide-stimulated PBMC in reaction to peptide-pulsed C1R-A2402 cells; induction of HLA-A24-restricted CTL
Type: cell-based, human
Details: PBMC of prostate cancer patients
Description: The ability of the synthesized peptide to induce HLA-A24-restricted CTL from the PBMC that was prepared from a prostate cancer patient was examined. The PBMC were prepared from blood by a method of the art. 1×10^5 PBMC were cultured with 10 μM of each peptide in each well of a U-shaped 96-well micro-culture plate (produced by Nunc) to which 200 μl of culture medium (comprising 45% RPMI-1640 culture medium, 45% AIM-V® culture medium (Invitrogen), 100 U/ml of IL-2, 0.1 mM of MEM non-essential amino acid solution (Invitrogen), and 10% FCS) was added, at 37° C. under conditions of 5% CO2-95% air. At 4 days and 7 days of culturing, half of the culture medium was removed and replaced with a culture medium having the aforementioned composition containing the peptide equivalent to the peptide that was added in the beginning. At 10 days of culturing, the cells were collected, washed, and used as effector cells (E).
Meanwhile, each synthesized peptide (10 μM) was incubated with C1R-A2402 cells (HLA-A24^+) for 2 hours at 37° C. under conditions of 5% CO2-95% air, to make the peptide of interest bind to the HLA-A24 molecule expressed on the cell surface. C1R-A2402 cells thus pulsed with each of peptide were used as target cells (T).
The effector cells were equally divided, and mixed with a variety of target cells, followed by incubating for 18 hours at 37° C. under conditions of 5% CO2-95% air. After incubation, 100 μl of supernatant was collected, and the amount of IFN-γ produced was measured by ELISA. In so doing, the effector cells were paired with the target cells in such a way that the peptide used to induce the effector cells and the peptide pulsed to C1R-A2402 cells were the same. In addition, a peptide derived from the human immunodeficiency virus (hereinafter abbreviated as HIV) was used as a control, and the quantity of IFN-γ produced by CTL that recognized C1R-A2402 cells pulsed with the HIV peptide was taken as a background and subtracted from each measurement value. Each measurement value (NET) that has been calculated was statistically processed by the Student's t-test, and those with a P value of 0.05 or below were considered to be significant. In addition, a peptide that enhanced IFN-γ production with significance by 50 pg/ml NET or more was assessed as positive. […]

Substance | induction of HLA-A24-restricted CTL
PSCA27-36: peptide (PSCA residues 27-36) that did not induce HLA-A24-restricted CTL (LQVENCTQLG) | did not induce
PSM74-83: peptide derived from PSMA that did not induce HLA-A24-restricted CTL (LYNFTQIPHL) | did not induce
PSM178-186: peptide derived from PSMA that did not induce HLA-A24-restricted CTL (NYARTEDFF) | did not induce
PSM227-235: peptide derived from PSMA that did not induce HLA-A24-restricted CTL (LYSDPADYF) | did not induce
PSM298-306: peptide derived from PSMA that did not induce HLA-A24-restricted CTL (GYYDAQKLL) | did not induce
PSM448-456: peptide derived from PSMA that did not induce HLA-A24-restricted CTL (AYINADSSI) | did not induce
PSM520-528: peptide derived from PSMA that did not induce HLA-A24-restricted CTL (DFEVFFQRL) | did not induce
PSM565-574: peptide derived from PSMA that did not induce HLA-A24-restricted CTL (FYDPMFKYHL) | did not induce
PSM584-593: peptide derived from PSMA that did not induce HLA-A24-restricted CTL (VFELANSIVL) | did not induce
PSM606-614: peptide derived from PSMA that did not induce HLA-A24-restricted CTL (KYADKIYSI) | did not induce
PSM624-633: peptide derived from PSMA that did not induce HLA-A24-restricted CTL (TYSVSFDSLF) | did not induce
PSM699-708: peptide derived from PSMA that did not induce HLA-A24-restricted CTL (KYAGESFPGI) | did not induce
PSM704-712: peptide derived from PSMA that did not induce HLA-A24-restricted CTL (SFPGIYDAL) | did not induce

Same assay, conditions: PBMC of prostate cancer patients, 10 μM peptide, 10 days; positive = significant, 50 pg/ml NET or more; Example 1

Substance | cases in which the peptide enhanced the production of IFN-γ from PBMC
PSCA76-84: peptide derived from PSCA, residues 76-84, HLA-A24-binding motif (DYYVGKKNI; A peptide recognized by HLA-A24 restricted cytotoxic T lymphocytes, which is designed based on the amino acid sequence of PSCA) | 1 out of 12
PSCA82-91: peptide derived from PSCA, residues 82-91, HLA-A24-binding motif (KNITCCDTDL; A peptide recognized by HLA-A24 restricted cytotoxic T lymphocytes, which is designed based on the amino acid sequence of PSCA) | 2 out of 12
